In patent publication US20050143406A1, “Amino-substituted hypocrellins for use as sonosensitizers” (priority 2002, published 2005):
“And” between values parts separate entries of the source, which are not always exact repeats. Equal entries are not always repeated.

How the values were obtained:
[1] = tested on: EMT6 murine mastocytoma in vitro; assay: Sonosensitizing potential: LD50 for a fixed dose of ultrasound; format: cell-based
[2] = tested on: EMT6 murine mastocytoma in vitro; assay: Photosensitizing potential: LD50 for a fixed dose of light; format: cell-based
[3] = tested on: Human acute promyelocytic leukemia HL-60 cells; assay: Sonodynamic therapy survival assay, screening of sonosensitizers in vitro; format: cell-based; settings: for Mean - DMSO Bg: mean survival relative to DMSO only (100.0); for Survival, % Mean / Survival, %: insonated HL-60 cells; for Survival, %: single determinations
Source text: This screening assay makes use of human promyelocytic leukemia cells growing in suspension culture. The transducer of an UltraMax ultrasound generator for physiotherapy was adapted for in vitro studies by fitting a tissue culture-compatible Teflon cuff such that cell suspensions could be conveniently insonated. The following diagrams represent the equipment employed.
Human acute promyelocytic leukemia HL-60 cells (ATCC No CCL-240) were maintained in RPMI 1640 cell culture medium supplemented with 7 g/L of L-glutamine (Gibco, Grand Island N.Y.), 10% fetal bovine serum (Cansera), and 1% penicillin-streptomycin-neomycin (Gibco), buffered with NaHCO3 to pH 7.4. They were incubated at 37° C. in a humidified atmosphere of 95% air, 5% CO2, and maintained at cell densities between 2.0×10^5 to 1.0×10^6 cells/mL. For insonations in the presence of Hp (a porphyrin positive control) or hypocrellin test compounds, cells were brought to approximately 1.0×10^6 cells/mL, incubated with the putative sensitizer at 37° C. for 2 hours in T-flasks, equilibrated for 30 minutes at room temperature, resuspended and insonated. All procedures took place in low-light conditions to avoid spurious photosensitization. Cells were gently resuspended for 10 seconds before insonation. […] Stock sensitizer was prepared by slowly adding RPMI-1640 medium to the appropriate volume at final sensitizer concentrations between 0.3 mM and 1 mM.
Aliquots of cells were withdrawn prior to insonation to serve as the original value for cell survival. Cells were suspended in Isoton diluent and counted in a Coulter electronic particle counter. Insonation proceeded at a power density of 2 W, at times varying between 3- and 10 seconds to effect cytotoxicity by sonosensitization. Control cultures were subjected to the appropriate dose of ultrasound, in the presence of DMSO, and the absence of the test sonosensitizer. Following ultrasound treatment, aliquots of the cell suspension were withdrawn for counting as above, and the survival fraction, S, was calculated as the fraction: S=(Cell number following insonation/cell number prior to insonation)×100. Results:
HL-60 cells were treated with perylenequinone sensitizers and insonated as described above. The surviving fractions were plotted against sensitizer concentration. […] Cell survival decreased steeply over the next two decades of sensitizer concentration.

[4] = tested on: syngeneic murine mastocytoma, EMT6; assay: Efficiency of DMHB in vivo: SDT of EMT6 tumors in Balb/c mice; settings: Balb/c mice with EMT6 flank tumors, DMHB i.p. 50 μM total body concentration, ultrasound 1 MHz 0.2 W/cm^2 10 min after 48 h; FIG. 2
Description: We explored the use of DMHB in Balb/c mice engrafted in the flank with the syngeneic murine mastocytoma, EMT6. The mice were inoculated subcutaneously with 1.0×10^5 EMT6 tumor cells in sterile injectable saline. Within 7 days, detectable tumors are evident. Mice were randomized into a control group and a SDT treatment group, which differed only in that the sonosensitizer was not present in the drug solvent (see below). Fresh DMHB was dissolved in mineral oil, and injected intraperitoneally into each mouse to achieve a total body concentration of 50 μM. Following a an interval of 48 h for biodistribution of the sensitizer, the mice were lightly anesthetized with Metafane, and placed on a 2% agarose gel, with the tumor lying in a depression of the gel which was juxtaposed to the transducer of an UltraMax physiotherapy ultrasound generator. Ultrasound was applied at a frequency of 1 MHz, at a power density of 0.2 W/cm^2, for a 10-minute period. The maximum energy applied to the tumor volume was approximately 500 J. Tumor growth was monitored daily by caliper measurements in three mutually orthogonal planes. Tumor volume was calculated from the expression, V=π/6×d1×d2×d3 where V=volume (mm^3), and d1,2, and 3 are the three mutually orthogonal diameters. The endpoint for the assay was the proportion of tumors reaching 4 times treatment volume, which was plotted as a function of time. […]

[5] = HL-60 cells, fixed dose and energy of ultrasound

Q: “2-(N,N-dimethyl-amino) propylamine-Hypocrellin B [HBDD-R1]” was tested. Which “Sonosensitizing Potential (Molar Concentration which exerts LD50)” value (“Sonosensitizing Potential” below) [1] did it give?
A: 1.0 mM

Q: Which “Photosensitizing Potential (Molar Concentration which exerts LD50)” value (from here on “Photosensitizing Potential”) [2] does the source give for 2-morpholino-ethylaminated HB [HBAM-R1] here?
A: 4.0 µM

Q: And the “Sonosensitizing Potential” value [1]?
A: None

Q: With `CCCCNc1c2c3c4c(c(OC)c(=O)c5c(O)cc(OC)c(c6c(OC)cc(O)c(c1=O)c63)c54)CC(C)=C2C(C)=O` [DMHBb, 2-butylamino-2-demethoxy-Hypocrellin B] as the molecule, how does the “Photosensitizing Potential” value [2] read?
A: 0.1 µM

Q: What about the “Sonosensitizing Potential” value [1] of the same molecule?
A: 0.1 mM

Q: `COc1c2c3c4c(c(OC)c(=O)c5c(O)cc(OC)c(c6c(OC)cc(O)c(c1=O)c63)c54)[C@@H](C(C)=O)[C@@](C)(O)C2` [HA, Hypocrellin A, reference compound] was tested. Which “Photosensitizing Potential” value [2] did it give?
A: 4.0 µM

Q: What about the “Sonosensitizing Potential” value [1] of the same molecule?
A: None

Q: How did the LD50 [3, 5] turn out when `CC1=C(CCC(=O)O)c2cc3[nH]c(cc4nc(cc5[nH]c(cc1n2)c(C)c5C(C)O)C(C)=C4C(C)O)c(C)c3CCC(=O)O` (stereo not shown) [Hp, hematoporphyrin, reference compound] was run?
A: 1.0 mM

Q: Demethylated-HB [DMHBa] was tested. Which “Photosensitizing Potential” value [2] did it give?
A: 3.0 µM

Q: What about the “Sonosensitizing Potential” value [1] of the same molecule?
A: 1.0 mM

Q: What does the source list for Ethylenediamne-Hypocrellin B [HBED-R2]?
A: Photosensitizing Potential (Molar Concentration which exerts LD50) [2]: 4.0 µM; Sonosensitizing Potential (Molar Concentration which exerts LD50) [1]: None

Q: For Methylamine-Hypocrellin B [HBMA-IV], which “Photosensitizing Potential” value [2] is on record?
A: 1.0 µM

Q: And the “Sonosensitizing Potential” value [1]?
A: None

Q: demethoxy hypocrellin B [DMHB] was tested. Which “maximum sonotoxic effect compared with Hp control” value ([3]; HL-60 cells) did it give?
A: comparable to that of the Hp control

Q: What about the LD50 [3, 5] of the same molecule?
A: approximately 100 μM

Q: What about the “difference of LD50 versus hematoporphyrin (Hp) control” value [3, 5] of the same molecule?
A: 10 fold

Q: And the sonotoxicity ([3]; HL-60 cells, up to 100 μM)?
A: negligible sonotoxicity

Q: And the “Mean - DMSO Bg” value ([3]; 1 μM DMHB)?
A: 83.0%

Q: And the “Mean - DMSO Bg” value ([3]; 10 μM DMHB)?
A: 71.1%

Q: And the “Mean - DMSO Bg” value ([3]; 100 μM DMHB)?
A: 63.2%

Q: And the “Survival, % Mean” value ([3]; DMSO + 1 μM DMHB)?
A: 41.1%

Q: And the “Survival, % Mean” value ([3]; DMSO + 10 μM DMHB)?
A: 35.2%

Q: What about the “Survival, % Mean” value ([3]; DMSO + 100 μM DMHB) of the same molecule?
A: 31.3%

Q: And the “Survival, %” value ([3]; DMSO + 1 μM DMHB)?
A: 41.8% and 48.2% and 33.5%

Q: And the “Survival, %” value ([3]; DMSO + 10 μM DMHB)?
A: 37.3% and 43.3% and 24.9%

Q: And the “Survival, %” value ([3]; DMSO + 100 μM DMHB)?
A: 30.7% and 39.4% and 23.7%

Q: What about the tumor growth [4] of the same molecule?
A: tumor growth is inhibited
